Measured values taken from patent US20140271670A1, “COMPOSITIONS FOR TREATING SKIN DISORDERS” (priority 2013, published 2014).

Tested on: Propionibacterium acnes (ATCC #6919)
Assay: In vitro reduction of P. acnes population (plate counts after timed exposure)
Format: cell-based
Procedure: In vitro experiments show the effectiveness of a composition comprising salicylic acid and anti-P. acnes immunoglobulin at reducing a specific microorganism population.
The microorganism of interest in the described experiments was Propionibacterium acnes. A stock suspension of P. acnes was prepared by inoculating a sample of P. acnes (ATCC #6919) in Reinforced Clostria broth at 36±1° C. for 5 days anaerobically. This stock suspension was divided into four equal batches. The first batch served as a no treatment control group. The second batch was treated with 2% salicylic acid. The third batch was treated with 3 ppm anti-P. acnes IgY at 95% purity. The fourth batch was treated with 2% salicylic acid and 3 ppm anti-P. acnes IgY at 95% purity. At time intervals 30 seconds, 1 minute, 5 minutes, 12 hours, and 24 hours, 1.0 ml from the inoculated control and test batches was taken and placed into 9.0 ml of neutralizing broth (1:10 dilution). Additional dilutions were made using neutralizing broth to achieve 1:100, 1:1000 and 1:10,000 dilutions. One milliliter from each dilution was plated into TSA+5% sheep blood. The plates were incubated at 36±1° C. for 5 days anaerobically. After the incubation period, all plates were counted to determine the number of microorganism at each time point.

SMILES: O=C(O)c1ccccc1O [2% SA, salicylic acid (o-hydroxybenzoic acid)]
- number of microorganism (Exposure Time 30 sec.): 7.20E+05
- number of microorganism (Exposure Time 12 hours): <10
- number of microorganism (Exposure Time 24 hours): <10
- number of microorganism (Exposure Time Initial, P. acnes stock suspension): 8.20E+05
- time after which a 99% kill rate was reached (used alone): 12 h
- reduction of the concentration of P. acnes (within the first 30 seconds): about 12%
